Data taken from US10517889B2, “Modulators of SMAD7 expression” (Ionis Pharmaceuticals, Inc., priority 2017, dated 2019).
Strand notation (5' to 3'): a small letter for the sugar, then the base; units joined by * are phosphorothioate-linked, units joined directly phosphodiester-linked; [ ] holds rarer units or linkages, { } end groups; capitals alone tell only the bases. k = constrained ethyl (cEt); [5mC] = 5-methylcytosine; d = 2'-deoxy (DNA)

System: human SMAD7 mRNA
Test: Antisense inhibition of human SMAD7 mRNA expression in Hep3B cells by 3-10-3 cEt gapmers, 10,000 nM, electroporation (Example 2)
Assay type: cell-based
Details: approximately 24 hours
Method in brief: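 Percent inhibition of SMAD7 mRNA, relative to untreated cells, after ~24 h exposure of electroporated Hep3B cells to 10,000 nM cEt gapmer; levels by qRT-PCR, corrected for total RNA.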

[1] = Hep3B cells, electroporation with 10,000 nM antisense oligonucleotide, SMAD7 mRNA by RT-PCR (RTS5062), relative to untreated control cells
[2] = Hep3B cells, 10,000 nM antisense oligonucleotide, electroporation, RT-PCR primer probe set RTS5062, relative to untreated control cells

Substance	% Inhibition [1] [%]	% Inhibition [2] [%]
798862 (kT*k[5mC]*k[5mC]*dA*dG*dT*dG*dT*dG*dG*d[5mC]*dG*dG*kA*k[5mC]*kT; antisense) [compound 798862]	20	–
798863 (kG*kG*kG*dT*dT*dG*dT*d[5mC]*d[5mC]*dA*dG*dT*dG*kT*kG*kG; antisense) [compound 798863]	41	–
798864 (kG*kT*k[5mC]*d[5mC]*dG*dG*dG*dT*dT*dG*dT*d[5mC]*d[5mC]*kA*kG*kT; antisense) [compound 798864]	33	–
798865 (kG*kG*kA*dG*dT*d[5mC]*d[5mC]*dG*dG*dG*dT*dT*dG*kT*k[5mC]*k[5mC]; antisense) [compound 798865]	8	–
798866 (kG*kT*k[5mC]*d[5mC]*dT*dG*dG*dA*dG*dT*d[5mC]*d[5mC]*dG*kG*kG*kT; antisense) [compound 798866]	20	–
798867 (kT*kT*kG*dT*dG*dT*dA*d[5mC]*d[5mC]*dA*dA*d[5mC]*dA*kG*k[5mC]*kG; antisense) [compound 798867]	29	–
798868 (kA*k[5mC]*k[5mC]*dT*dT*dG*dT*dG*dT*dA*d[5mC]*d[5mC]*dA*kA*k[5mC]*kA; antisense) [compound 798868]	48	–
798869 (kA*kA*k[5mC]*dA*d[5mC]*d[5mC]*dT*dT*dG*dT*dG*dT*dA*k[5mC]*k[5mC]*kA; antisense) [compound 798869]	41	–
798870 (kG*kG*kG*dA*dA*d[5mC]*dA*d[5mC]*d[5mC]*dT*dT*dG*dT*kG*kT*kA; antisense) [compound 798870]	14	–
798871 (kA*kA*kA*dG*d[5mC]*d[5mC]*dT*dT*dG*dA*dT*dG*dG*kA*kG*kA; antisense) [compound 798871]	–	20
798872 (kT*kA*kG*dT*d[5mC]*dG*dA*dA*dA*dG*d[5mC]*d[5mC]*dT*kT*kG*kA; antisense) [compound 798872]	–	2
798873 (kG*k[5mC]*kT*dG*dT*dA*d[5mC]*dG*d[5mC]*d[5mC]*dT*dT*d[5mC]*kT*k[5mC]*kG; antisense) [compound 798873]	–	27
798874 (kG*k[5mC]*kA*dG*dG*d[5mC]*dT*dG*dT*dA*d[5mC]*dG*d[5mC]*k[5mC]*kT*kT; antisense) [compound 798874]	–	27
798875 (k[5mC]*kG*k[5mC]*dT*dG*d[5mC]*dA*dG*dG*d[5mC]*dT*dG*dT*kA*k[5mC]*kG; antisense) [compound 798875]	–	58
798876 (kG*kG*k[5mC]*d[5mC]*dG*d[5mC]*dT*dG*d[5mC]*dA*dG*dG*d[5mC]*kT*kG*kT; antisense) [compound 798876]	–	50
798877 (k[5mC]*kA*kT*dT*dG*dG*dG*d[5mC]*d[5mC]*dG*d[5mC]*dT*dG*k[5mC]*kA*kG; antisense) [compound 798877]	–	24
798878 (k[5mC]*kT*kG*d[5mC]*dT*dG*d[5mC]*dA*dT*dA*dA*dA*d[5mC]*kT*k[5mC]*kG; antisense) [compound 798878]	–	49
798879 (kA*k[5mC]*kG*dG*d[5mC]*dT*dG*d[5mC]*dT*dG*d[5mC]*dA*dT*kA*kA*kA; antisense) [compound 798879]	57	–
798880 (kT*k[5mC]*k[5mC]*dA*d[5mC]*dG*dG*d[5mC]*dT*dG*d[5mC]*dT*dG*k[5mC]*kA*kT; antisense) [compound 798880]	37	–
798881 (k[5mC]*k[5mC]*kG*dT*d[5mC]*d[5mC]*dA*d[5mC]*dG*dG*d[5mC]*dT*dG*k[5mC]*kT*kG; antisense) [compound 798881]	14	–

Substance	% Inhibition [1] [%]	% Inhibition [2] [%]
798882 (kA*kG*k[5mC]*d[5mC]*d[5mC]*dG*dT*d[5mC]*d[5mC]*dA*d[5mC]*dG*dG*k[5mC]*kT*kG; antisense) [compound 798882]	0	–
798883 (kT*kA*kA*dA*dG*d[5mC]*d[5mC]*d[5mC]*dG*dT*d[5mC]*d[5mC]*dA*k[5mC]*kG*kG; antisense) [compound 798883]	0	–
798884 (k[5mC]*kG*kG*dT*dA*dA*dA*dG*d[5mC]*d[5mC]*d[5mC]*dG*dT*k[5mC]*k[5mC]*kA; antisense) [compound 798884]	15	–
798885 (kG*k[5mC]*kA*d[5mC]*dG*dG*dT*dA*dA*dA*dG*d[5mC]*d[5mC]*k[5mC]*kG*kT; antisense) [compound 798885]	43	–
798886 (kT*k[5mC]*kT*dG*d[5mC]*dA*d[5mC]*dG*dG*dT*dA*dA*dA*kG*k[5mC]*k[5mC]; antisense) [compound 798886]	29	–
798887 (k[5mC]*kT*kG*dA*dT*d[5mC]*dT*dG*d[5mC]*dA*d[5mC]*dG*dG*kT*kA*kA; antisense) [compound 798887]	26	–
798888 (kA*kA*kA*dG*d[5mC]*dT*dG*dA*dT*d[5mC]*dT*dG*d[5mC]*kA*k[5mC]*kG; antisense) [compound 798888]	40	–
798889 (k[5mC]*kA*k[5mC]*dA*dA*dA*dG*d[5mC]*dT*dG*dA*dT*d[5mC]*kT*kG*k[5mC]; antisense) [compound 798889]	–	0
798890 (k[5mC]*kT*kT*d[5mC]*dA*d[5mC]*dA*dA*dA*dG*d[5mC]*dT*dG*kA*kT*k[5mC]; antisense) [compound 798890]	–	40
798891 (kG*k[5mC]*k[5mC]*d[5mC]*dT*dT*d[5mC]*dA*d[5mC]*dA*dA*dA*dG*k[5mC]*kT*kG; antisense) [compound 798891]	–	58
798892 (k[5mC]*k[5mC]*k[5mC]*d[5mC]*dA*dG*d[5mC]*d[5mC]*d[5mC]*dT*dT*d[5mC]*dA*k[5mC]*kA*kA; antisense) [compound 798892]	–	39
798893 (kT*kG*kG*d[5mC]*d[5mC]*d[5mC]*d[5mC]*dA*dG*d[5mC]*d[5mC]*d[5mC]*dT*kT*k[5mC]*kA; antisense) [compound 798893]	–	77
798894 (kA*kG*k[5mC]*dA*d[5mC]*dT*dG*dG*d[5mC]*d[5mC]*d[5mC]*d[5mC]*dA*kG*k[5mC]*k[5mC]; antisense) [compound 798894]	–	55
798895 (kT*kG*kT*dA*dG*d[5mC]*dA*d[5mC]*dT*dG*dG*d[5mC]*d[5mC]*k[5mC]*k[5mC]*kA; antisense) [compound 798895]	–	53
798896 (kG*kG*kG*dT*dG*dT*dA*dG*d[5mC]*dA*d[5mC]*dT*dG*kG*k[5mC]*k[5mC]; antisense) [compound 798896]	–	46
798897 (kG*kG*k[5mC]*dG*dG*dG*dT*dG*dT*dA*dG*d[5mC]*dA*k[5mC]*kT*kG; antisense) [compound 798897]	–	60
798898 (kA*kG*k[5mC]*dT*dG*d[5mC]*dT*dG*dA*dT*dG*dA*dA*k[5mC]*kT*kG; antisense) [compound 798898]	2	–
798899 (kG*kG*k[5mC]*dA*dG*d[5mC]*dT*dG*d[5mC]*dT*dG*dA*dT*kG*kA*kA; antisense) [compound 798899]	13	–
798900 (k[5mC]*k[5mC]*kA*dG*d[5mC]*dA*d[5mC]*dG*dG*dG*d[5mC]*dA*dG*k[5mC]*kT*kG; antisense) [compound 798900]	0	–
